This is an account of results in patent publication US20250382308A1, “COMPOUNDS ACTIVE TOWARDS BROMODOMAINS” (NUEVOLUTION A/S, priority 2022, published 2025).

In test [1] the target is first bromodomain of BRD4 (Homo sapiens (Human), UniProt O60885). Kind of test: Bromoscan binding assay BRD4 (1). The conditions noted are these: for Kd: Bromoscan, geometric mean where multiple measurements have been made; for Selectivity BRD4(2)/BRD4(1): ratio BRD4(2) Kd / BRD4(1) Kd. How it is done:
(§1) Compounds were assayed for binding affinity using bromoscan assays and a phosphodiesterase three assay.
(§2) Bromoscan assays were run by DiscoveRx Corporation. The relevant assay names are BRD4 (1) for the first bromodomain of BRD4 and BRD4 (2) for the second bromodomain of BRD4. Further Bromoscan assays covering other bromodomains may be employed to establish the selectivity profile of a compound of interest. To run the Bromoscan assay, a T7 phage strain displaying the relevant bromodomain was grown in parallel in 24-well blocks in an E. coli host derived from the BL21 strain. E. coli were grown to log-phase and infected with T7 phage from a frozen stock (multiplicity of infection=0.4) and incubated with shaking at 32° C. until lysis (90-150 minutes). The lysates were centrifuged (5,000×g) and filtered (0.2 μm) to remove cell debris. […] The liganded beads were blocked with excess biotin and washed with blocking buffer (SeaBlock (Pierce), 1% BSA (bovine serum albumin), 0.05% Tween 20, 1 mM DTT (dithiothreitol)) to remove unbound ligand and to reduce non-specific phage binding. […] Test compounds were prepared as 1000× stocks in 100% DMSO and subsequently diluted 1:10 in monoethylene glycol (MEG) to create stocks at 100× the screening concentration (resulting stock solution is 10% DMSO/90% MEG). The compounds were then diluted directly into the assays such that the final concentration of DMSO and MEG were 0.1% and 0.9%, respectively. All reactions were performed in polystyrene 96-well plates in a final volume of 0.135 ml. […] The bromodomain concentration in the eluates was measured by qPCR (quantitative real-time polymerase chain reaction). Binding constants (Kds) were calculated with a standard dose-response curve using the Hill equation: Response=Blackground+((Signal-Background)/(1+Kd^Hill Slope/Dose^Hill Slope)). The Hill Slope was set to −1. Curves were fitted using a non-linear least square fit with the Levenberg-Marquardt algorithm.

The target of test [2] is second bromodomain of BRD4 (Homo sapiens (Human), UniProt O60885). Kind of test: Bromoscan binding assay BRD4 (2). The conditions noted are these: geometric mean where multiple measurements have been made. The protocol:
as §1, §2

The term Kd denotes the equilibrium constant for the complex coming apart. On to `COc1cc(NC(=O)c2cc3c(nc2N2CCOCC2)COC3C)cc2c(C)cc(=O)[nH]c12` (centres unmarked) [Example 31, N-(8-methoxy-4-methyl-2-oxo-1H-quinolin-6-yl)-5-methyl-2-morpholino-5,7-dihydrofuro[3,4-b]pyridine-3-carboxamide], for which, in test [1], the dissociation constant Kd worked out at 22 nM and the “Selectivity BRD4(2)/BRD4(1)” value amounted to 45. Further, the Kd in test [2] came out at 1000 nM.

As to `Cc1cc(=O)[nH]c2c3c(c(NC(=O)c4cc5c(nc4N4CCOCC4)COC5)cc12)OCCO3` [Example 10, N-(7-methyl-9-oxo-3,10-dihydro-2H-[1,4]dioxino[2,3-h]quinolin-5-yl)-2-morpholino-5,7-dihydrofuro[3,4-b]pyridine-3-carboxamide], the Kd was 43 nM in test [1] and over 10000 nM in test [2]. For the same compound, in test [1], the “Selectivity BRD4(2)/BRD4(1)” value is on record as over 232.

Consider `COc1cc2[nH]c(=O)cc(C)c2cc1NC(=O)c1cc2c(nc1N1CCOCC1)COC2` [Example 14, N-(7-methoxy-4-methyl-2-oxo-1H-quinolin-6-yl)-2-morpholino-5,7-dihydrofuro[3,4-b]pyridine-3-carboxamide], for which, in test [1], the dissociation constant (Kd) amounted to 26 nM and the “Selectivity BRD4(2)/BRD4(1)” value is recorded as 15. The compound also returned a dissociation constant Kd in test [2] of 400 nM.

On to `COc1cc(NC(=O)c2cc3c(nc2N2C4CCCC2CC4)COC3)cc2c(C)cc(=O)[nH]c12` [Example 21, 2-(8-azabicyclo[3.2.1]octan-8-yl)-N-(8-methoxy-4-methyl-2-oxo-1H-quinolin-6-yl)-5,7-dihydrofuro[3,4-b]pyridine-3-carboxamide], for which, in test [1], binding was put at a Kd of 6 nM and the “Selectivity BRD4(2)/BRD4(1)” value worked out at 233. The compound further had a Kd in test [2] of 1400 nM.

In the case of `COc1cc(NC(=O)c2cc3c(nc2N2CCC(F)(F)C2)COC3)cc2c(C)cc(=O)[nH]c12` [Example 16, 2-(3,3-difluoropyrrolidin-1-yl)-N-(8-methoxy-4-methyl-2-oxo-1H-quinolin-6-yl)-5,7-dihydrofuro[3,4-b]pyridine-3-carboxamide], in test [1], the “Selectivity BRD4(2)/BRD4(1)” value is given as 43.

As to `COc1c(F)c(NC(=O)c2cc3c(nc2N2CCOCC2)COC3)cc2c(C)cc(=O)[nH]c12` [Example 9, N-(7-fluoro-8-methoxy-4-methyl-2-oxo-1H-quinolin-6-yl)-2-morpholino-5,7-dihydrofuro[3,4-b]pyridine-3-carboxamide], in test [1], the Kd was 440 nM and the “Selectivity BRD4(2)/BRD4(1)” value is 17. Besides, the Kd in test [2] came out at 7400 nM.

In the case of `CCN(c1nc2c(cc1C(=O)Nc1cc(OC)c3[nH]c(=O)cc(C)c3c1)COC2)C(C)C` [Example 28, 2-[ethyl(isopropyl)amino]-N-(8-methoxy-4-methyl-2-oxo-1H-quinolin-6-yl)-5,7-dihydrofuro[3,4-b]pyridine-3-carboxamide], in test [1], the Kd stood at 33 nM and the “Selectivity BRD4(2)/BRD4(1)” value is 30. In addition, in test [2], the equilibrium dissociation constant (Kd) amounted to 1000 nM.

As for `CCN(CC)c1nc2c(cc1C(=O)Nc1cc(OC)c3[nH]c(=O)cc(C)c3c1)COC2` [Example 27, 2-(diethylamino)-N-(8-methoxy-4-methyl-2-oxo-1H-quinolin-6-yl)-5,7-dihydrofuro[3,4-b]pyridine-3-carboxamide], the “Selectivity BRD4(2)/BRD4(1)” value in test [1] is recorded as 24.

Turning to `COc1cc(NC(=O)c2cc3c(nc2N2C[C@@H](F)[C@@H](F)C2)COC3)cc2c(C)cc(=O)[nH]c12` [Example 42, N-(8-methoxy-4-methyl-2-oxo-1H-quinolin-6-yl)-2-[rac-(3R,4S)-3,4-difluoropyrrolidin-1-yl]-5,7-dihydrofuro[3,4-b]pyridine-3-carboxamide], in test [1], the Kd stood at 26 nM and the “Selectivity BRD4(2)/BRD4(1)” value amounted to 16. Besides, in test [2], the Kd is 400 nM.

In the case of `COc1cc(NC(=O)c2cc3c(nc2N2CCC[C@@H]2C)COC3)cc2c(C)cc(=O)[nH]c12` [Example 25, N-(8-methoxy-4-methyl-2-oxo-1H-quinolin-6-yl)-2-[(2S)-2-methylpyrrolidin-1-yl]-5,7-dihydrofuro[3,4-b]pyridine-3-carboxamide], in test [1], the Kd was found to be 150 nM and the “Selectivity BRD4(2)/BRD4(1)” value is listed as 30. For the same compound, the equilibrium dissociation constant (Kd) in test [2] was 4500 nM.

Consider `COc1cc(NC(=O)c2cc3c(nc2N2CCC[C@H]2C)COC3)cc2c(C)cc(=O)[nH]c12` [Example 18, N-(8-methoxy-4-methyl-2-oxo-1H-quinolin-6-yl)-2-[(2R)-2-methylpyrrolidin-1-yl]-5,7-dihydrofuro[3,4-b]pyridine-3-carboxamide], for which, in test [1], the dissociation constant (Kd) was determined as 12 nM and the “Selectivity BRD4(2)/BRD4(1)” value is recorded as 17. The compound also registered a dissociation constant Kd in test [2] of 200 nM.

As to `Cc1cc(=O)[nH]c2c3c(c(NC(=O)c4cc5c(nc4N4CCOCC4)COC5)cc12)CCO3` [Example 8, N-(6-methyl-8-oxo-3,9-dihydro-2H-furo[3,2-h]quinolin-4-yl)-2-morpholino-5,7-dihydrofuro[3,4-b]pyridine-3-carboxamide], the equilibrium dissociation constant (Kd) in test [1] is 56 nM; in test [2] it was over 2500 nM. The “Selectivity BRD4(2)/BRD4(1)” value in test [1] is 45.

For `COc1cc(NC(=O)c2cc3c(nc2N2CCOCC2)CN(C(C)C)C3)cc2c(C)cc(=O)[nH]c12` [Example 35, 6-isopropyl-N-(8-methoxy-4-methyl-2-oxo-1H-quinolin-6-yl)-2-morpholino-5,7-dihydropyrrolo[3,4-b]pyridine-3-carboxamide], in test [1], the affinity, expressed as Kd, was 20 nM and the “Selectivity BRD4(2)/BRD4(1)” value was 30. For the same compound, the dissociation constant Kd in test [2] turned out to be 600 nM.

On to `COc1cc(NC(=O)c2cc3c(nc2N2CC4C(C2)C4(F)F)COC3)cc2c(C)cc(=O)[nH]c12` (centres unmarked) [Example 5, 2-(6,6-difluoro-3-azabicyclo[3.1.0]hexan-3-yl)-N-(8-methoxy-4-methyl-2-oxo-1H-quinolin-6-yl)-5,7-dihydrofuro[3,4-b]pyridine-3-carboxamide], for which, in test [1], binding was put at a Kd of 17 nM and the “Selectivity BRD4(2)/BRD4(1)” value turned out to be 12. This compound also yielded a Kd in test [2] of 200 nM.

As to `COc1cc(NC(=O)c2cc3c(nc2N2CCOCC2)CO[C@@H]3C)cc2c(C)cc(=O)[nH]c12` [Example 30, (5R)—N-(8-methoxy-4-methyl-2-oxo-1H-quinolin-6-yl)-5-methyl-2-morpholino-5,7-dihydrofuro[3,4-b]pyridine-3-carboxamide], in test [1], the Kd amounted to 14 nM and the “Selectivity BRD4(2)/BRD4(1)” value was 86. In addition, the Kd in test [2] stood at 1200 nM.

As for `COc1cc(NC(=O)c2cc3c(nc2N2CC[C@@H](F)C2)COC3)cc2c(C)cc(=O)[nH]c12` [Example 40, 2-[(3R)-3-fluoropyrrolidin-1-yl]-N-(8-methoxy-4-methyl-2-oxo-1H-quinolin-6-yl)-5,7-dihydrofuro[3,4-b]pyridine-3-carboxamide], in test [1], binding was characterised by a dissociation constant (Kd) of 11 nM and the “Selectivity BRD4(2)/BRD4(1)” value was found to be 14. The dissociation constant (Kd) in test [2] amounted to 150 nM.

Take `COc1cc(NC(=O)c2cc3c(nc2C2=CCCC2)COC3)cc2c(C)cc(=O)[nH]c12` [Example 3, 2-(cyclopenten-1-yl)-N-(8-methoxy-4-methyl-2-oxo-1H-quinolin-6-yl)-5,7-dihydrofuro[3,4-b]pyridine-3-carboxamide]: the Kd was found to be 13 nM in test [1] and 800 nM in test [2]. For the same compound, the “Selectivity BRD4(2)/BRD4(1)” value in test [1] stood at 62.

Turning to `COc1cc(NC(=O)c2cc3c(nc2N2CCOCC2)CN(C)C3)cc2c(C)cc(=O)[nH]c12` [Example 32, N-(8-methoxy-4-methyl-2-oxo-1H-quinolin-6-yl)-6-methyl-2-morpholino-5,7-dihydropyrrolo[3,4-b]pyridine-3-carboxamide], the Kd in test [1] was 17 nM; in test [2] it was 300 nM. In addition, the “Selectivity BRD4(2)/BRD4(1)” value in test [1] is 18.

Consider `COc1cc(NC(=O)c2cc3c(nc2N2CC4CCOC4C2)COC3)cc2c(C)cc(=O)[nH]c12` (centres unmarked) [Example 19, 2-(2,3,3a,4,6,6a-hexahydrofuro[2,3-c]pyrrol-5-yl)-N-(8-methoxy-4-methyl-2-oxo-1H-quinolin-6-yl)-5,7-dihydrofuro[3,4-b]pyridine-3-carboxamide], for which, in test [1], the dissociation constant Kd was 180 nM and the “Selectivity BRD4(2)/BRD4(1)” value stood at 31. Also, in test [2], binding was put at a Kd of 5600 nM.

With `COc1cc(NC(=O)c2cc3c(nc2N2CC4COCC4C2)COC3)cc2c(C)cc(=O)[nH]c12` (centres unmarked) [Example 20, 2-(1,3,3a,4,6,6a-hexahydrofuro[3,4-c]pyrrol-5-yl)-N-(8-methoxy-4-methyl-2-oxo-1H-quinolin-6-yl)-5,7-dihydrofuro[3,4-b]pyridine-3-carboxamide], the Kd is 70 nM in test [1] and 3400 nM in test [2]. For the same compound, the “Selectivity BRD4(2)/BRD4(1)” value in test [1] was 49.

Turning to `COc1cc(NC(=O)c2cc3c(nc2N2CC4CC2(C)C4)COC3)cc2c(C)cc(=O)[nH]c12` [Example 4, N-(8-methoxy-4-methyl-2-oxo-1H-quinolin-6-yl)-2-(1-methyl-2-azabicyclo[2.1.1]hexan-2-yl)-5,7-dihydrofuro[3,4-b]pyridine-3-carboxamide], the equilibrium dissociation constant (Kd) in test [1] was 29 nM; in test [2] it was over 5000 nM. Further, the “Selectivity BRD4(2)/BRD4(1)” value in test [1] was over 172.
